Assay results: ChEMBL document CHEMBL1127853, “Novel synthesis of cyclic amide-linked analogues of angiotensins II and III” (J Med Chem, 1994)
Where a SMILES comes first, the peptide text is derived from it.

How the values were obtained:
[1] = organism: Rattus norvegicus; test: Tested for antagonist activity in rat uterus with respect to human angiotensin II as reference; assay type: functional; settings: read-out: pA2 (converted)
[2] = organism: Rattus norvegicus; test: Tested for agonist activity in rat uterus with respect to human angiotensin II; assay type: functional

| Structure (SMILES) | Kb [1] [µM] | Agonist activity [2] [%] |
| --- | --- | --- |
| CC[C@H](C)[C@@H]1NC(=O)[C@H](Cc2ccc(O)cc2)NC(=O)[C@H](Cc2ccccc2)NC(=O)[C@@H]2CCCN2C(=O)[C@H](Cc2c[nH]cn2)NC1=O (cyclo(FYIHP)) [listing 1 of 2 here] | > 10 |  |
| CC[C@H](C)[C@@H]1NC(=O)[C@H](Cc2ccc(O)cc2)NC(=O)[C@H](Cc2ccccc2)NC(=O)[C@@H]2CCCN2C(=O)[C@H](Cc2c[nH]cn2)NC1=O (cyclo(FYIHP)) [listing 2 of 2 here] |  | <0.1 |
